According to patent US12226410B2, “Methods for enhancing cellular clearance of pathological molecules via activation of the cellular protein ykt6” (NORTHWESTERN UNIVERSITY, priority 2019, dated 2025):

Legend:
Type in all cases: cell-based, human
ykt6 = assay: Measurement of farnesyl-ykt6 in SH-SY5Y cells; conditions: SH-SY5Y cells expressing GFP-ykt6; 10 nM FTI, 48 hours
Procedure: FIGS. 14A, 14B, 14C, 14D, 14E, 14F, and 14G. The effects of FTI treatment on ykt6 and lysosomes. 14A) Farnesylation of ykt6 was measured in SH-SY5Y cells expressing GFP-ykt6. Cells treated with or without FTI (LNK-754) were cultured with farnesyl-azide to label farnesyl-modified proteins, immunoprecipitated with GFPaffinity beads, and then conjugated with phosphine-biotin. Biotin was detected with streptavidin-conjugated IRDye800, and normalized to total levels of GFP-ykt6. See methods for details. […] 14B) Membrane shift analysis of SH-SY5Y cells stably expressing GFP-ykt6-CS, treated with 5 nM FTI. Calnexin (CNX) and Coomassie blue (CBB) were used as a loading controls. 14C) Gel filtration/western blot analysis of FTI treated A53T iPSn. Ykt6 complex levels eluting at ca. 120A were quantified on the right (n=2). […] 14E) Raw quantification data of LAMP2A immunofluorescence intensity of individual cells from H4 cells treated with FTI, +/−ykt6 KD. Each data point represents LAMP2A intensity from individual cells, from 3 different culture wells. 14F) Analysis of ER-Golgi trafficking of GCase by endo H resistance after treatment with FTI in SH-SY5Y cells overexpressing wt a-syn (n=3). 14G) Western blot analysis of Triton X-100 soluble a-syn in SH-SY5Y wt a-syn cells after treatment with various concentrations of FTI for 5 days. For all quantifications, values are the mean+/−SEM, *p<0.05. […]

H4 a-syn cells = assay: Immunofluorescence of GCase and LAMP2A in FTI-treated H4 a-syn cells; conditions: 5 nM FTI
Procedure: (§1) FIGS. 5A, 5B, 5C, 5D, 5E, 5F, and 5G. Reducing farnesyl-ykt6 enhances SNARE assembly and improves the lysosomal targeting of GCase. 5A) Ykt6 membrane shift analysis of SH-SY5Y cells expressing GFP-ykt6 wt or CS (n=3). 5B) Co-IP of GFP-ykt6 and bet1 in A53T iPSn (n=3). 5C) Ykt6 membrane shift analysis in FTI-treated SH-SY5Y wt a-syn cells or A53T iPSn (5 nM farnesyltransferase inhibitors (FTI) LNK-754 (FTI-1) or LNK-3248 (FTI-2) for 5 days) (n=4). Sec22b was measured to assess specificity. 5D) SEC/western blot of FTI-1 treated SH-SY5Y cells. Quantification is shown below. […]
(§2) FIGS. 14A, 14B, 14C, 14D, 14E, 14F, and 14G. […] 14A) Farnesylation of ykt6 was measured in SH-SY5Y cells expressing GFP-ykt6. […] Biotin was detected with streptavidin-conjugated IRDye800, and normalized to total levels of GFP-ykt6. […] Ykt6 complex levels eluting at ca. 120A were quantified on the right (n=2). […] 14E) Raw quantification data of LAMP2A immunofluorescence intensity of individual cells from H4 cells treated with FTI, +/−ykt6 KD. […] For all quantifications, values are the mean+/−SEM, *p<0.05.
For GCase/LAMP2 colocalization, cultures were fixed in 4% PFA in PBS for 20 minutes, then permeabilized in 0.2% saponin in 0.2% glycine buffer as described previously (Mazzulli et al., 2016b). […] Cells were mounted in DAPI-Fluoromount G (Southern Biotech) and analyzed by confocal microscopy as above. […]

GCase = assay: Analysis of post-ER GCase (endo H resistance) in FTI-treated cultures; conditions: A53T iPSn and SHSY5Y cells
Procedure: as §1, with “below. 5E) Co-IP of GFP-ykt6 wt or mutant ykt6-SS, (cannot be palmitoylated or farnesylated) in FTI-treated SHSY5Y cells (5 nM LNK-754, 5d) (n=2).” for “below.”
as §2
Analysis of post-ER GCase. […] Endo H resistant bands migrating at 62-64 kDa were measured as post-ER forms of GCase, and normalized to GAPDH levels. […]

mature, endo H-resistant GCase (GCase): significantly elevated
Compound: C#Cc1cccc(-c2cc(=O)n(C)c3ccc([C@](O)(c4ccc(Cl)cc4)c4cncn4C)cc23)c1 [LNK-754]
reduction of the farnesyl-ykt6 signal (ykt6): 40%
levels of LAMP2A and GCase by immunostaining (H4 a-syn cells): elevated the levels of LAMP2A and GCase
